Tests used:
[1] = Oil spreading time on human inner forearm (spreadability factor S^R); assay type: physicochemical; conditions: 4 μL oil, 12 mm×8 mm ellipse on inner forearm; for Relative Spreading Time (spreadability factor S^R): normalized to oleyl oleate, data of present work; for spreading time: two panelists in duplicate
Procedure: As for oil “spreadability factor”, S^R, a semi-quantitative assay was developed by applicants to determine the spreading time for the different oils that have the potential to be used in microemulsions. First, an elliptic shape with 12 mm×8 mm diameters was marked on the inner forearm of a panelist. Because of the textural orientation of the skin, the spreading trace is usually in an elliptic shape. […] According to the test, 4 μL of the tested oil was dosed in the center of the area. The time when the oil arrived at the marked outline was recorded as the spreading time of the oil. The data were obtained on two panelists with duplicate tests for each oil. The average values were taken as the results. The spreading time of oleyl oleate was than used to normalize the measured values. For example, the spreading time for oleyl oleate is 1.3+0.03 minutes for IPM so the relative spreading time for IPM is 0.5/1.3=0.4. Thus, the spreadability factor, S^R, is ratio of spread rate of selected oil (measured in minutes) to spread rate of oleyl oleate (also measured in minutes).
Using this test, examples of oil spreading times are noted below: […]

[2] = Cognis spreading area over fixed time, converted using oleyl oleate as control; cited from earlier work
[3] = Viscosity, ARES Rheometer, strain controlled mode; assay type: physicochemical; conditions: 20-23° C.
From the text: The ARES Rheometer manufactured by Rheometric Scientific™ was used for measuring viscosities in strain controlled mode. Fluid behavior of the microemulsions is different from conventional skin cleansers. They are Newtonian liquids, so the viscosity is constant with varying shear rate or time. […] As noted, the viscosities of the two microemulsions are much lower than for the competitors' liquid cleansers. However, low viscosity may ease penetration into crevices. Make-up removal efficacy may be directly related to product viscosity, i.e., an increased viscosity of a product caused a reduction in make-up removal. […] Pond's Clear Solutions® Deep Pore Foaming cleanser has an even lower viscosity than the microemulsions. It is packaged in a bottle with aeration upon dispensing, providing a thick and creamy foam. Microemulsions can be used as a cleansing milk or impregnated onto a non-woven.
To simulate the effect of sebum dissolution in washing process on the viscosity of the microemulsion, 2% model sebum was dissolved in microemulsion #1. From the results, one can expect that the good properties of the microemulsion, i.e., solvency and low viscosity, will be maintained during the washing process.

Relative Spreading Time (spreadability factor S^R) [1] | Compound | Relative Spreading Time [2] | further results
0.2 | CCCCCCCCOCCCCCCCC [Cetiol ® OE: Di-N-Octyl Ether, Di-N-Octyl Ether] |  | 
0.9 | CCCCCCCC(=O)OCC(COC(=O)CCCCCCC)OC(=O)CCCCCCC [Glycerol Tricaprylate] |  | 
0.4 | CCCCCCCCCCCCCC(=O)OC(C)C [Isopropanol Myristrate] | 0.4 | spreading time [1]: 0.5 min
0.7 | CCCCCCCCCCCCCCCC(=O)OC(C)C [Isopropanol Palmitate] |  | 
 | CCCCCCCCCCC(CO)CCCCCCCC (centres unmarked) [Octyl Dodecanol] | 0.7 | 
 | CCCCCCCC/C=C\CCCCCCCCO [Oleyl Alcohol] | 0.6 | 
 | CCCCCCCC/C=C\CCCCCCCCCCCC(=O)OCCCCCCCC/C=C\CCCCCCCC [Oleyl Eructate] | 1.2 | 
1 | CCCCCCCC/C=C\CCCCCCCCOC(=O)CCCCCCC/C=C\CCCCCCCC [Oleyl Oleate, reference compound] | 1 | spreading time [1]: 1.3 ± 0.03 min
1.0 | CC(C)CCCC(C)CCCC(C)CCCCC(C)CCCC(C)CCCC(C)C (centres unmarked) [Squalane] |  | 
0.8 | CC(C)=CCC/C(C)=C/CC/C(C)=C/CC/C=C(\C)CC/C=C(\C)CCC=C(C)C [Squalene] |  | 
 | O [Water] |  | Viscosity at Shear Rate 10 s^−1 [3]: 1 mPa-s
 | Dioctyl Cyclohexane | 0.5 | 
2.5 | Pentahydrosqualene |  | 

From US20030095990A1, “Microemulsion facial washes comprising specific oils” (Unilever Home & Personal Care USA, Division of Conopco, Inc., priority 2001, published 2003)
